Tests used:
[1] = system: Tumor necrosis factor (TNF-α); assay: TNF-α production in human primary sebocytes; assay type: cell-based; conditions: human primary sebocytes in vitro; CBD isolate at same concentration as present in the invention
Method: (§1) In a study using human primary keratinocytes, two formulations were analyzed, Natural Blemish Light Lotion (NB) and Natural Blemish OTC Lotion (OTC) for unique properties. All the following experiments include a 24-hour treatment of the finished products used in the dilutions shown and were analyzed by quantitative polymerase chain reaction (qPCR).
(§2) Because sebum production is a major factor in the pathophysiology of acne vulgaris, experiments were performed using human primary sebocytes isolated from the eye area. The main function of sebocytes is considered to be the production of lipids to moisturize the skin. However, it recently became apparent that sebocytes release chemokines and cytokines and respond to proinflammatory stimuli as well as the presence of bacteria. (Attii M, Lovászi M, Garzorz N, Atenhan A, Quaranta M, Lauffer F, Konstantinow A, Küpper M, Zouboulis C C, Kemeny L, Eyerich K, Schmidt-Weber C B, Töröcsik D, Eyerich S. Sebocytes contribute to skin inflammation by promoting the differentiation of T helper 17 cells. Br J Dermatol. 2018 March; 178(3):722-730. doi: 10.1111/bjd.15879. Epub 2018 Jan. 9. PMID: 28799643). The overproduction of sebum, proinflammatory chemokines and cytokines released from sebocytes all contribute to the formation of comedones on the skin. Both OTC and NB were studied as well as AP to investigate the efficacy of these products. […]

Fox-01 = assay: FOX-01 expression in human primary sebocytes; assay type: cell-based; conditions: 100 ug/mL
Method: as §1, §2

Interleukin-6 (IL-6) = assay: Interleukin-6 expression in keratinocytes; assay type: cell-based, human; conditions: 24-hour treatment, CBD isolate at same concentration as present in the invention
Method: as §1
Interleukin-6 (IL-6) is a well-established marker for inflammation. Largely produced in the skin by keratinocytes, its production leads to the activation of the STAT3 pathway which has been linked to the pathogenesis of many inflammatory skin diseases (Activation of Janus kinase signaling pathway in acne lesions, Sara Mohamed Awad, Yasmin Mostafa Tawfik, Mohamed Ahmed El-Mokhtar, Amira F. El-Gazzar, Amira Ali Abdel Motaleb First published: 19 Nov. 2020 https://doi.org/10.1111/dth.14563). In addition, IL-6 exerts stimulatory effects on T-cells and B-cells, thus favoring chronic inflammatory responses. (Gabay C. Interleukin-6 and chronic inflammation. Arthritis Res Ther. 2006; 8 Suppl 2(Suppl 2):S3. doi:10.1186/ar1917). […] That is, the compositions work better to reduce expression of IL-6 than the individual ingredients, namely CBD alone.

C=C(C)[C@@H]1CCC(C)=C[C@H]1c1c(O)cc(CCCCC)cc1O [CBD isolate, Cannabidiol]
lowered production of TNF-α [1]: 14.0%
increase of Fox-01 expression (Fox-01): 50.8%
reduction of expression of IL-6 (Interleukin-6 (IL-6)): 6.0%

Source: patent US11524040B2, “Composition for the treatment of acne” (priority 2020, dated 2022)
